Measured values: PubChem BioAssay AID248 (DTP/NCI, 2004)
Several values for one entry are separate records, joined by “and”; a condition that tells them apart may be missing. Equal entries are not always repeated. Inconclusive results and toxic doses are left out.

Tested on: L1210 leukemia ip in BDF1 mice, survival T/C
Experiment: NCI In Vivo Anticancer Drug Screen. Data for tumor model L1210 Leukemia (intraperitoneal) in B6D2F1 (BDF1) mice
Conditions: endpoint: mean survival time, higher = longer survival
In short: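 Each compound was tested against a transplantable tumor grown in mice. The endpoint was survival, with treated animals benchmarked against vehicle controls as a simple ratio.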

[1] = dose: 25.0 mg/kg/injection, schedule: Q01DX009 (ip), vehicle: Klucel (hydroxypropylcellulose) (HPC)
[2] = dose: 50.0 mg/kg/injection, schedule: Q01DX009 (ip), vehicle: Klucel (hydroxypropylcellulose) (HPC)
[3] = dose: 100.0 mg/kg/injection, schedule: Q01DX009 (ip), vehicle: Klucel (hydroxypropylcellulose) (HPC)
[4] = dose: 200.0 mg/kg/injection, schedule: Q01DX009 (ip), vehicle: Klucel (hydroxypropylcellulose) (HPC)
[5] = dose: 50.0 mg/kg/injection, schedule: Q01DX001 (ip), vehicle: saline
[6] = dose: 100.0 mg/kg/injection, schedule: Q01DX001 (ip), vehicle: saline
[7] = dose: 200.0 mg/kg/injection, schedule: Q01DX001 (ip), vehicle: saline
[8] = dose: 400.0 mg/kg/injection, schedule: Q01DX001 (ip), vehicle: saline
[9] = dose: 100.0 mg/kg/injection, schedule: Q01DX009 (ip), vehicle: saline
[10] = dose: 200.0 mg/kg/injection, schedule: Q01DX009 (ip), vehicle: saline
[11] = dose: 400.0 mg/kg/injection, schedule: Q01DX009 (ip), vehicle: saline
[12] = dose: 100.0 mg/kg/injection, schedule: Q04DX003 (ip), vehicle: Klucel (hydroxypropylcellulose) (HPC)
[13] = dose: 200.0 mg/kg/injection, schedule: Q04DX003 (ip), vehicle: Klucel (hydroxypropylcellulose) (HPC)
[14] = dose: 400.0 mg/kg/injection, schedule: Q01DX009 (ip), vehicle: Klucel (hydroxypropylcellulose) (HPC)
[15] = dose: 400.0 mg/kg/injection, schedule: Q04DX003 (ip), vehicle: Klucel (hydroxypropylcellulose) (HPC)
[16] = dose: 100.0 mg/kg/injection, schedule: Q01DX001 (ip), vehicle: saline with Tween-80
[17] = dose: 100.0 mg/kg/injection, schedule: Q04DX002 (ip), vehicle: Klucel (hydroxypropylcellulose) (HPC)
[18] = dose: 200.0 mg/kg/injection, schedule: Q04DX002 (ip), vehicle: Klucel (hydroxypropylcellulose) (HPC)
[19] = dose: 400.0 mg/kg/injection, schedule: Q04DX002 (ip), vehicle: Klucel (hydroxypropylcellulose) (HPC)

CC1(C)C(=O)N(Br)C(=O)N1Br
T/C (dose: 12.5 mg/kg/injection, schedule: Q04DX003 (ip), vehicle: Klucel (hydroxypropylcellulose) (HPC)): 92 % of control
T/C (dose: 25.0 mg/kg/injection, schedule: Q04DX003 (ip), vehicle: Klucel (hydroxypropylcellulose) (HPC)): 103 % of control
T/C (dose: 50.0 mg/kg/injection, schedule: Q04DX003 (ip), vehicle: Klucel (hydroxypropylcellulose) (HPC)): 103 % of control

C=CCNC(=S)Nc1c(C)cc(C)cc1C
T/C (dose: 12.5 mg/kg/injection, schedule: Q01DX009 (ip), vehicle: Klucel (hydroxypropylcellulose) (HPC)): 102 % of control
T/C [1]: 97 % of control
T/C [2]: 103 % of control

N#Cc1ccc(NC(=O)N(CCCl)N=O)cc1
T/C (dose: 1.0 mg/kg/injection, schedule: Q01DX009 (ip), vehicle: saline): 150 % of control
T/C (dose: 1.56 mg/kg/injection, schedule: Q01DX009 (ip), vehicle: saline): 161 % of control
T/C (dose: 6.25 mg/kg/injection, schedule: Q01DX Z (ip), vehicle: carboxymethylcellulose (CMC)): 160 % of control
T/C (dose: 12.5 mg/kg/injection, schedule: Q01DX Z (ip), vehicle: carboxymethylcellulose (CMC)): 118 % of control
T/C (dose: 25.0 mg/kg/injection, schedule: Q01DX Z (ip), vehicle: carboxymethylcellulose (CMC)): 104 % of control
T/C (dose: 37.5 mg/kg/injection, schedule: Q01DX001 (ip), vehicle: carboxymethylcellulose (CMC)): 152 % of control
T/C (dose: 75.0 mg/kg/injection, schedule: Q01DX001 (ip), vehicle: carboxymethylcellulose (CMC)): 153 % of control
T/C (dose: 150.0 mg/kg/injection, schedule: Q01DX001 (ip), vehicle: carboxymethylcellulose (CMC)): 177 % of control

COc1cc2c(cc1OC)C(=O)Cc1ccc3c(c1CN(C)CC2)OCO3
T/C [3]: 95 % of control
T/C [4]: 95 % of control

c1ccc(CSC(Cc2ccccc2)(SCc2ccccc2)c2ccccc2)cc1
T/C [5]: 102 % of control
T/C [6]: 104 % of control
T/C [7]: 98 % of control
T/C [8]: 104 % of control

CCO/N=C(/N)N=C(N)N
T/C [6]: 92 % of control
T/C [9]: 106 % of control
T/C (dose: 100.0 mg/kg/injection, schedule: Q04DX003 (ip), vehicle: saline): 95 % of control
T/C [7]: 97 % of control
T/C [10]: 107 % of control
T/C (dose: 200.0 mg/kg/injection, schedule: Q04DX003 (ip), vehicle: saline): 91 % of control
T/C [8]: 92 % of control
T/C [11]: 97 % of control
T/C (dose: 400.0 mg/kg/injection, schedule: Q04DX003 (ip), vehicle: saline): 91 % of control

NC(=S)N=Nc1c(O)n(C2OC(CO)C(O)C(O)C2O)c2ccccc12 (stereo unspecified)
T/C (dose: 50.0 mg/kg/injection, schedule: Q01DX005 (ip), vehicle: saline): 88 % of control
T/C (dose: 100.0 mg/kg/injection, schedule: Q01DX005 (ip), vehicle: saline): 94 % of control

O=C(COc1cccc(Cl)c1)Nc1cc[n+](Cc2ccc(S(=O)(=O)F)cc2)cc1
T/C (dose: 25.0 mg/kg/injection, schedule: Q04DX003 (ip), vehicle: saline with Tween-80): 102 % of control
T/C (dose: 50.0 mg/kg/injection, schedule: Q04DX003 (ip), vehicle: saline with Tween-80): 100 % of control
T/C (dose: 100.0 mg/kg/injection, schedule: Q04DX003 (ip), vehicle: saline with Tween-80): 97 % of control and 113 % of control

c1ccc(-c2ccc([Si](c3ccccc3)(c3ccccc3)c3ccccc3)cc2)cc1
T/C [3]: 102 % of control
T/C [12]: 105 % of control
T/C [4]: 96 % of control
T/C [13]: 94 % of control
T/C [14]: 93 % of control
T/C [15]: 96 % of control

O=P(NC1CCCCC1)(NC1CCCCC1)c1ccccc1
T/C (dose: 100.0 mg/kg/injection, schedule: Q04DX002 (ip), vehicle: gum acacia): 104 % of control
T/C (dose: 200.0 mg/kg/injection, schedule: Q04DX002 (ip), vehicle: gum acacia): 93 % of control
T/C (dose: 400.0 mg/kg/injection, schedule: Q04DX002 (ip), vehicle: gum acacia): 96 % of control

Nc1ncnc2nc(-c3cccc(CNC(=O)c4ccccc4S(=O)(=O)F)c3)[nH]c12
T/C (dose: 25.0 mg/kg/injection, schedule: Q01DX001 (ip), vehicle: saline with Tween-80): 93 % of control
T/C (dose: 50.0 mg/kg/injection, schedule: Q01DX001 (ip), vehicle: saline with Tween-80): 88 % of control
T/C [16]: 87 % of control

CC(C)/C=N\NC(=O)c1ccc[n+](C)c1
T/C (dose: 50.0 mg/kg/injection, schedule: Q01DX009 (ip), vehicle: saline with Tween-80): 100 % of control
T/C (dose: 100.0 mg/kg/injection, schedule: Q01DX009 (ip), vehicle: saline with Tween-80): 92 % of control

c1ccc2c(c1)OCCOCCOCCOCCO2
T/C (dose: 6.25 mg/kg/injection, schedule: Q04DX002 (ip), vehicle: saline): 89 % of control
T/C (dose: 12.5 mg/kg/injection, schedule: Q04DX002 (ip), vehicle: saline): 103 % of control
T/C (dose: 25.0 mg/kg/injection, schedule: Q04DX002 (ip), vehicle: saline): 113 % of control
T/C (dose: 50.0 mg/kg/injection, schedule: Q04DX002 (ip), vehicle: saline): 94 % of control

COc1ccc(C)nn1
T/C (dose: 100.0 mg/kg/injection, schedule: Q04DX002 (ip), vehicle: saline): 106 % of control
T/C (dose: 200.0 mg/kg/injection, schedule: Q04DX002 (ip), vehicle: saline): 106 % of control
T/C (dose: 400.0 mg/kg/injection, schedule: Q04DX002 (ip), vehicle: saline): 122 % of control

COc1nsc(N)n1
T/C [16]: 100 % of control
T/C (dose: 200.0 mg/kg/injection, schedule: Q01DX001 (ip), vehicle: saline with Tween-80): 104 % of control
T/C (dose: 400.0 mg/kg/injection, schedule: Q01DX001 (ip), vehicle: saline with Tween-80): 91 % of control

O=C(Nc1ccccc1C(=O)N/N=C/c1c(O)ccc2ccccc12)c1ccccc1Cl
T/C (dose: 100.0 mg/kg/injection, schedule: Q01DX001 (ip), vehicle: Klucel (hydroxypropylcellulose) (HPC)): 95 % of control
T/C [3]: 99 % of control and 103 % of control
T/C [17]: 95 % of control and 104 % of control
T/C [12]: 100 % of control
T/C (dose: 200.0 mg/kg/injection, schedule: Q01DX001 (ip), vehicle: Klucel (hydroxypropylcellulose) (HPC)): 93 % of control
T/C [4]: 101 % of control and 102 % of control
T/C [18]: 103 % of control
T/C [13]: 96 % of control
T/C (dose: 400.0 mg/kg/injection, schedule: Q01DX001 (ip), vehicle: Klucel (hydroxypropylcellulose) (HPC)): 95 % of control
T/C [14]: 94 % of control and 95 % of control
T/C [19]: 93 % of control and 92 % of control
T/C [15]: 96 % of control

O=C(Nc1nccs1)Nc1cc([N+](=O)[O-])ccc1F
T/C [12]: 88 % of control
T/C [13]: 91 % of control
T/C [15]: 88 % of control

NC(=S)Nc1c(Cl)cc(Cl)cc1Cl
T/C [1]: 94 % of control
T/C [2]: 108 % of control
T/C [3]: 94 % of control and 107 % of control

O=S(=O)(O)c1ccc(O)c2ncccc12.[Zn+2]
T/C [5]: 100 % of control
T/C [6]: 97 % of control
T/C [7]: 97 % of control
T/C [8]: 100 % of control

CCOC(=O)NCc1ccco1
T/C (dose: 5.0 mg/kg/injection, schedule: Q01DX009 (ip), vehicle: saline): 89 % of control
T/C (dose: 10.0 mg/kg/injection, schedule: Q01DX009 (ip), vehicle: saline): 109 % of control
T/C (dose: 20.0 mg/kg/injection, schedule: Q01DX009 (ip), vehicle: saline): 93 % of control

C1=C(N2CCOCC2)CCCCC1
T/C [9]: 108 % of control
T/C [10]: 109 % of control
T/C [11]: 108 % of control

O=C1c2cccc3c(Br)ccc(c23)C(=O)N1CCCN1CCOCC1
T/C [1]: 97 % of control
T/C [2]: 90 % of control
T/C [3]: 102 % of control

CC(=O)c1ccc(Oc2ccc(C(C)=O)cc2)cc1
T/C (dose: 50.0 mg/kg/injection, schedule: Q01DX001 (ip), vehicle: carboxymethylcellulose (CMC)): 103 % of control
T/C (dose: 100.0 mg/kg/injection, schedule: Q01DX001 (ip), vehicle: carboxymethylcellulose (CMC)): 105 % of control
T/C [17]: 106 % of control
T/C (dose: 200.0 mg/kg/injection, schedule: Q01DX001 (ip), vehicle: carboxymethylcellulose (CMC)): 92 % of control
T/C [18]: 102 % of control
T/C (dose: 400.0 mg/kg/injection, schedule: Q01DX001 (ip), vehicle: carboxymethylcellulose (CMC)): 92 % of control
T/C [19]: 91 % of control
